Measured values reported in US10857105B2, “Compounds and compositions for intracellular delivery of therapeutic agents” (ModernaTX, Inc., priority 2017, dated 2020).

Key:
[1] = test system: modified luciferase; experiment: Luciferase expression in liver, lung, spleen and femur 6 hours after intravenous administration to mice; type: in vivo; conditions: 6 hours after intravenous 0.5 mpk, mice
Method in brief: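 Nanoparticle formulations of the modified luciferase were given intravenously to mice (n=3) at 0.5 mpk. Bioluminescence was measured after 6 hours as total light flux. Standard MC3 formulation and PBS run as controls.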

[2] = test system: CD-1 mice; experiment: Luciferase expression after intravenous delivery of luciferase mRNA LNPs (bioluminescent imaging); type: in vivo; conditions: intravenous 0.5 mg/kg mRNA dose
Protocol: Whole body and ex vivo organ bioluminescent imaging of mice: CD-1 mice were injected 15 minutes prior to the imaging timepoint intraperitoneally (IP) with 200 μL Xenolight D-luciferin K+ salt, diluted in PBS just prior to use to a concentration of 15 mg/mL. Ex vivo imaging of organs was completed, within 25 minutes of luciferin administration. All images were quantified by region of interest for total flux.
[…] […] (See Semple, S.C. et al., Nature Biotech. 2010. 28, 172-176, Jayaraman, M., et al. Angew. Chem. Int. Ed. 2012, 51, 8529-8533, the entire contents of each of which are incorporated by reference herein in their entireties). To evaluate the efficiency of the new amino lipids, LNPs using the novel compounds were tested in vivo in mice using luciferase mRNA as a reporter. An MC3 LNP was included as a control in each experiment, enabling the comparison of LNPs from experiment to experiment. Measured luciferase activity also enabled the determination of protein bio-distribution.

[3] = Encapsulation efficiency of RNA in nanoparticle compositions (RIBOGREEN assay); type: physicochemical; conditions: Table 1A; lipid:DSPC:cholesterol:PEG-DMG 50:10:38.5:1.5 mol %
Method in brief: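 Lipid nanoparticles (ionisable lipid:DSPC:cholesterol:PEG-DMG 50:10:38.5:1.5 mol %) carrying N1-methylpseudouridine luciferase or hEPO mRNA diluted to about 5 μg/mL in TE, pH 7.5, with or without 2% Triton X-100, 15 min at 37° C. RiboGreen fluorescence (ex ~480, em ~520 nm) blank-subtracted; free RNA = intact/disrupted signal.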

[4] = test system: IL-6, IP-10; experiment: Cytokine induction (IL-6, IP-10) in mice 6 hours after intravenous administration; type: in vivo; parameters: unit not given here; conditions: intravenous 0.5 mpk
Method in brief: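 Mice dosed intravenously with nanoparticle compositions at 0.5 mpk; serum cytokine concentrations (IL-6, IP-10) measured at 6 hours. MC3 formulation and PBS controls run alongside.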

[5] = Chemical stability of lipids in ethanol at room temperature and 37° C. (lipid purity); type: physicochemical
Protocol: Ester linkages were previously reported to trigger metabolism by esterases in vivo. (See Fukami, T. et al. Drug Metab. Pharmacokinet. 2012, 27, 466-477, the content of which is incorporated by reference herein in its entirety). […] (See Maier M. A., Mol. Ther. 2013, 21, 1570-1578, the content of which is incorporated herein in its entirety) First, the chemical stability of the lipids was evaluated by measuring ethanol stability at room temperature and 37° C. (Table 39). […] LNPs formed with compound 138 were larger, with a surface pKa>7. […] Removal of one ester function (compound 136) afforded LNPs with improved physiochemical characteristics and lower LNP surface pKa.

[6] = Residual lipid levels in rat liver and spleen (UPLC-MS); type: in vivo; conditions: rats, 2 mpk, 48 h; assuming 300 g rat and 15 g liver
Protocol: At 48 h liver tissue was harvested for lipid quantification. To pre-weighed tissues, Milli-Q water was added (900 μL water per 100 mg tissue). Tissues were homogenized using an Omni probe homogenizer until uniform. 50 μL of samples and matrix calibration standards were aliquoted into a 96-well plate. 50 μL of blank matrix for matrix blanks and control blanks were aliquoted. 400 μL IS spiking solution were manually added to all samples except matrix blanks. 400 μL of 50:50 ACN:IPA were manually added to matrix-blanks. The plate was covered and the samples vortexed and centrifuged for 5 minutes at >3000 rpm. 200 μL of the samples were transferred into a clean 96-well plate for analysis. Samples were analyzed on a Waters Acquity UPLC using a Higgins Analytical Clipeus C8 column ([…], 30×2.1 mm) and a gradient of either 70-95% or 60-95% (Mobile Phase A: 5 mM ammonium formate in 50:50:1 H2O:MeOH:formic acid; Mobile Phase B: 5 mM ammonium formate in 100:1 MeOH:formic acid) over 1.3 min at […] (column temperature 55° C.). Detection was based on electrospray ionization (ESI) in positive mode using a Sciex API5500 Mass Spectrometer.
(§1) The expression of hEPO in rats intravenously administered a nanoparticle composition at a dose of 0.2 mpk or 2.0 mpk was measured at 6 hours. Table 16 summarize the ratio of hEPO expression levels using various nanoparticle compositions as compared to the hEPO expression level using MC3 formulation and the lipid levels in the liver measured 48 hours after administration, as described above. Tables 17 and 18 summarize the lipid levels in the liver and spleen measured 48 hours after administration of Compounds 28, 33, 53, and 54. Liver and spleen levels represent the average values calculated for 3 rats in each group. As is shown in Tables 17 and 18, less than 10% of Compounds 28, 33, 53, and 54 remained in the liver after 48 hours, while greater than 60% of MC3 remained.
(§2) Table 19A summarizes the hEPO expression, IP-10 induction, liver and spleen levels, and alanine aminotransferase (ALT) and aspartate aminotransferase (AST) measured upon intravenous administration of formulations including Compounds 48, 49, and 50 to rat at 0.2 and 2 mpk and hEPO mRNA. hEPO concentrations were measured 6 hours after administration, while cytokine induction and liver and spleen levels were measured 48 hours after administration. hEPO and IP-10 concentrations are presented in pg/ml, while liver levels are provided in ng/g. ALT and AST levels are presented in international units.
(§3) The expression of hEPO and lipid levels in the liver and spleen in rats intravenously administered a nanoparticle composition at a dose of 0.2 mpk was measured at various time points. Compounds 18 and 25 were selected for comparison with MC3. Lipids were formulated according to the standard MC3 formulation described above. Rats were administered intravenously a single 0.2 mpk dose and expression monitored at 0.25, 0.5, 1, 2, 4, 8, 24, and 48 hours after administration.

[7] = Particle size and polydispersity index of nanoparticle compositions (Zetasizer Nano ZS); type: physicochemical
Method in brief: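 Size and PDI measured by Zetasizer Nano ZS in 1×PBS (zeta potential in 15 mM PBS). Lipid nanoparticles contained test ionizable lipid:DSPC:cholesterol:PEG-DMG at 50:10:38.5:1.5 mol % with N1-methyl-pseudouridine mRNA encoding luciferase or hEPO.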

[8] = test system: hEPO mRNA; experiment: hEPO expression after intravenous administration to rats; type: in vivo, rat; conditions: rats, 6 hours; for Lipid/MC3 hEPO conc. ratio, 0.2 mpk: intravenous 0.2 mpk; for Lipid/MC3 hEPO conc. ratio, 2 mpk: intravenous 2 mpk
Protocol: The expression of hEPO and cytokine induction in rats intravenously administered a nanoparticle composition at a dose of 2.0 mpk was measured at 6 h.
as §1, §2
The expression of hEPO induced by intravenous administration to rats of nanoparticle compositions at various doses was measured at 2, 4, 6, 8, 24, and 48 hour time points. FIGS. 3-6 respectively summarize the hEPO expression measured upon intravenous administration of formulations including Compounds 26, 18, 25, and MC3 to rat at various doses. The lipid levels of Compound 26 in the liver after 48 hours were about 19%.
as §3

[9] = Table 1A, lipid:DSPC:cholesterol:PEG-DMG 50:10:38.5:1.5 mol %

Row | SMILES | Total Flux, Femur [1] | Total Flux, Liver [1] | Total Flux, Lung [1] | Total Flux, Spleen [1] | luciferase activity/expression compared to MC3 LNP control (words) ([2]; 0.5 mg/kg) | luciferase activity/expression compared to MC3 LNP control (words) ([2]; listed as compound 14, 0.5 mg/kg) | EE [3] [%] | Cytokine induction, IL-6 [4] | Cytokine induction, IP-10 [4] | Lipid Purity, t = 96 h, 25° C. [5] [%] | Lipid Purity, t = 96 h, 37° C. [5] [%] | Lipid Purity, t = 0 [5] [%] | % Lipid Remaining in liver, 48 h, 2 mpk [6] [%] | Size [7, 9] [nm] | Size ([7]; Table 1D, compositions for subcutaneous administration, # formulated with hEPO mRNA) [nm] | Lipid/MC3 hEPO conc. ratio, 0.2 mpk [8] | Lipid/MC3 hEPO conc. ratio, 2 mpk [8] | luciferase activity/expression compared to MC3 LNP control (words) [2] | localization of protein expression (whole body imaging) [2]
1 | CCCCCCCCCOC(=O)CCCCCCCN(CCCCCCCC(=O)OC(CCCCCCCC)CCCCCCCC)CCN(C)C [Compound 14, Heptadecan-9-yl 8-((2-(dimethylamino)ethyl)(8-(nonyloxy)-8-oxooctyl)amino)octanoate] | 4.91E+06 | 1.91E+08 | 4.74E+06 | 1.92E+08 | complete loss of delivery efficiency | low levels of Luciferase expression | 95.24 | 75.29 | 621.49 | 92.07 | 91.90 | 92.08 | – | – | – | – | – | – | –
2 | CCCCCCCCC(CC)OC(=O)CCCCCCCN(CCO)CCCCCCCC(=O)OC(CCCCCCCC)CCCCCCCC (stereo not shown) [Compound 49, heptadecan-9-yl 8-((2-hydroxyethyl)(8-oxo-8-(undecan-3-yloxy)octyl)amino)octanoate] | – | 5.68E+09 | 2.52E+07 | 1.87E+08 | – | – | – | – | – | – | – | – | 12.6 | 88 | 74.0 | 4.13 | 3.28 | – | –
3 | CCCCCCCCC(CCC)OC(=O)CCCCCCCN(CCO)CCCCCCCC(=O)OC(CCCCCCCC)CCCCCCCC (stereo not shown) [Compound 50, dodecan-4-yl 8-((8-(heptadecan-9-yloxy)-8-oxooctyl)(2-hydroxyethyl)amino)octanoate] | – | 6.30E+09 | 2.81E+07 | 1.14E+08 | – | – | – | – | – | – | – | – | 15.9 | 68.4 | – | 3.41 | 3.03 | – | –
4 | CCCCCCCCC(CCCCCCCC)OC(=O)CCCCCCCN(CCO)CCCCCCCC(=O)OC(CCCCCCCC)CCCCCCCC [compound 29, Di(heptadecan-9-yl) 8,8′-((2-hydroxyethyl)azanediyl)dioctanoate] | 9.56E+05 | 5.20E+08 | 9.83E+05 | 5.99E+06 | – | – | 96.99 | 69.54 | 1362.81 | 97.67 | 98.10 | 97.017 | – | – | – | – | – | lower luciferase activity | –
5 | CCCCCCCCCOC(=O)CCCCCCCN(CCCCCCCC(=O)OC(CCCCCCCC)CCCCCCCC)CCCNC(=O)C(C)(C)COC [compound 281, Heptadecan-9-yl 8-((3-(3-methoxy-2,2-dimethylpropanamido)propyl)(8-(nonyloxy)-8-oxooctyl)amino)octanoate] | – | – | – | – | – | – | – | – | – | 95.15 | 96.47 | 95.17 | – | – | – | – | – | two-fold lower | majority of protein expression was localized in the liver
